Measured values: ChEMBL document CHEMBL1155271, “Synthesis, crystal structures and antibacterial activity studies of aza-derivatives of phytoalexin from cotton plant--gossypol” (2009)
Converted amounts (≈) assume the structure as drawn. The source made the active and inactive calls. No cut-off for these calls is given here.

Key:
Assay type in all cases: functional
[1] = tested on: Staphylococcus aureus; experiment: Antimicrobial activity against Methicillin susceptible Staphylococcus aureus 206/7 by twofold dilution technique
[2] = tested on: Staphylococcus aureus; experiment: Antimicrobial activity against Staphylococcus aureus NCTC 4163 after 18 hrs by twofold dilution technique; conditions: NCTC 4163, 18 h
[3] = tested on: Micrococcus luteus; experiment: Antimicrobial activity against Micrococcus luteus ATCC 10240 by twofold dilution technique
[4] = tested on: Staphylococcus aureus; experiment: Antimicrobial activity against Methicillin susceptible Staphylococcus aureus 207/7 by twofold dilution technique
[5] = tested on: Staphylococcus aureus; experiment: Antimicrobial activity against Methicillin susceptible Staphylococcus aureus 242/7 by twofold dilution technique
[6] = tested on: Staphylococcus aureus; experiment: Antimicrobial activity against Methicillin susceptible Staphylococcus aureus 237/7 by twofold dilution technique
[7] = tested on: Staphylococcus aureus; experiment: Antimicrobial activity against methicillin-resistant Staphylococcus aureus 140/6 by twofold dilution technique
[8] = tested on: Staphylococcus aureus; experiment: Antimicrobial activity against methicillin-resistant Staphylococcus aureus 217/7 by twofold dilution technique
[9] = tested on: Staphylococcus aureus; experiment: Antimicrobial activity against Staphylococcus aureus ATCC 6538 after 18 hrs by twofold dilution technique; conditions: ATCC 6538, 18 h
[10] = tested on: Enterococcus hirae; experiment: Antimicrobial activity against Enterococcus hirae ATCC 10541 at 400 ug after 18 hrs by disk diffusion method
[11] = tested on: Staphylococcus aureus; experiment: Antimicrobial activity against Staphylococcus aureus ATCC 25923 at 400 ug after 18 hrs by disk diffusion method; conditions: ATCC 25923, 18 h, read-out: DIZ
[12] = tested on: Bacillus subtilis; experiment: Antimicrobial activity against Bacillus subtilis ATCC 6633 after 18 hrs by twofold dilution technique; conditions: ATCC 6633, 18 h
[13] = tested on: Micrococcus luteus; experiment: Antimicrobial activity against Micrococcus luteus ATCC 10240 at 400 ug after 18 hrs by disk diffusion method; conditions: ATCC 10240, 18 h, read-out: DIZ
[14] = tested on: Staphylococcus aureus; experiment: Antimicrobial activity against Methicillin susceptible Staphylococcus aureus 208/7 by twofold dilution technique
[15] = tested on: Staphylococcus aureus; experiment: Antimicrobial activity against methicillin-resistant Staphylococcus aureus 141/6 by twofold dilution technique
[16] = tested on: Staphylococcus aureus; experiment: Antimicrobial activity against methicillin-resistant Staphylococcus aureus 200/7 by twofold dilution technique
[17] = tested on: Staphylococcus aureus; experiment: Antimicrobial activity against Methicillin susceptible Staphylococcus aureus 213/7 by twofold dilution technique
[18] = tested on: Staphylococcus aureus; experiment: Antimicrobial activity against methicillin-resistant Staphylococcus aureus 136/6 by twofold dilution technique
[19] = tested on: Staphylococcus aureus; experiment: Antimicrobial activity against methicillin-resistant Staphylococcus aureus 144/6 by twofold dilution technique
[20] = tested on: Micrococcus luteus; experiment: Antimicrobial activity against Micrococcus luteus ATCC 9341 after 18 hrs by twofold dilution technique; conditions: ATCC 9341, 18 h
[21] = tested on: Staphylococcus aureus; experiment: Antimicrobial activity against Staphylococcus aureus ATCC 25923 after 18 hrs by twofold dilution technique; conditions: ATCC 25923, 18 h
[22] = tested on: Staphylococcus aureus; experiment: Antimicrobial activity against Staphylococcus aureus ATCC 29213 at 400 ug after 18 hrs by disk diffusion method; conditions: ATCC 29213, 18 h, read-out: DIZ
[23] = tested on: Staphylococcus epidermidis; experiment: Antimicrobial activity against Staphylococcus epidermidis ATCC 12228 by twofold dilution technique
[24] = tested on: Staphylococcus aureus; experiment: Antimicrobial activity against methicillin-resistant Staphylococcus aureus 236/7 by twofold dilution technique
[25] = tested on: Staphylococcus epidermidis; experiment: Antimicrobial activity against Staphylococcus epidermidis ATCC 12228 at 400 ug after 18 hrs by disk diffusion method; conditions: ATCC 12228, 18 h, read-out: DIZ
[26] = tested on: Bacillus subtilis; experiment: Antimicrobial activity against Bacillus subtilis ATCC 6633 at 400 ug after 18 hrs by disk diffusion method; conditions: ATCC 6633, 18 h, read-out: DIZ
[27] = tested on: Staphylococcus aureus; experiment: Antimicrobial activity against Methicillin susceptible Staphylococcus aureus 239/7 by twofold dilution technique
[28] = tested on: Staphylococcus aureus; experiment: Antimicrobial activity against Methicillin susceptible Staphylococcus aureus 212/7 by twofold dilution technique
[29] = tested on: Staphylococcus aureus; experiment: Antimicrobial activity against methicillin-resistant Staphylococcus aureus 218/7 by twofold dilution technique
[30] = tested on: Bacillus cereus; experiment: Antimicrobial activity against Bacillus cereus ATCC 11778 after 18 hrs by twofold dilution technique; conditions: ATCC 11778, 18 h
[31] = tested on: Staphylococcus aureus; experiment: Antimicrobial activity against Staphylococcus aureus ATCC 29213 after 18 hrs by twofold dilution technique; conditions: ATCC 29213, 18 h
[32] = tested on: Staphylococcus aureus; experiment: Antimicrobial activity against methicillin-resistant Staphylococcus aureus 143/6 by twofold dilution technique
[33] = tested on: Staphylococcus aureus; experiment: Antimicrobial activity against Staphylococcus aureus NCTC 4163 at 400 ug after 18 hrs by disk diffusion method; conditions: NCTC 4163, 18 h, read-out: DIZ
[34] = tested on: Bacillus cereus; experiment: Antimicrobial activity against Bacillus cereus ATCC 11778 at 400 ug after 18 hrs by disk diffusion method; conditions: ATCC 11778, 18 h, read-out: DIZ
[35] = tested on: Staphylococcus aureus; experiment: Antimicrobial activity against Staphylococcus aureus ATCC 6538 at 400 ug after 18 hrs by disk diffusion method; conditions: ATCC 6538, 18 h, read-out: DIZ
[36] = tested on: Staphylococcus aureus; experiment: Antimicrobial activity against Methicillin susceptible Staphylococcus aureus 243/7 by twofold dilution technique
[37] = tested on: Staphylococcus aureus; experiment: Antimicrobial activity against methicillin-resistant Staphylococcus aureus 146/6 by twofold dilution technique
[38] = tested on: Enterococcus hirae; experiment: Antimicrobial activity against Enterococcus hirae ATCC 10541 after 18 hrs by twofold dilution technique; conditions: ATCC 10541, 18 h
[39] = tested on: Micrococcus luteus; experiment: Antimicrobial activity against Micrococcus luteus ATCC 9341 at 400 ug after 18 hrs by disk diffusion method; conditions: for zone of inhibition at 400 µg/disc: ATCC 9341, 18 h, read-out: DIZ
[40] = tested on: Staphylococcus aureus; experiment: Antimicrobial activity against Methicillin susceptible Staphylococcus aureus 238/7 by twofold dilution technique

| SMILES | MIC [1] [µg/mL] | MIC [2] [µg/mL] | MIC [3] [µg/mL] | MIC [4] [µg/mL] | MIC [5] [µg/mL] | MIC [6] [µg/mL] | MIC [7] [µg/mL] | MIC [8] [µg/mL] | MIC [9] [µg/mL] | zone of inhibition at 400 µg/disc [11] [mm] | MIC [12] [µg/mL] | zone of inhibition at 400 µg/disc [13] [mm] | MIC [14] [µg/mL] | MIC [15] [µg/mL] | MIC [16] [µg/mL] | MIC [17] [µg/mL] | MIC [18] [µg/mL] | MIC [19] [µg/mL] | MIC [20] [µg/mL] | MIC [21] [µg/mL] | also measured |
| --- | --- | --- | --- | --- | --- | --- | --- | --- | --- | --- | --- | --- | --- | --- | --- | --- | --- | --- | --- | --- | --- |
| Cc1cc2c(c(O)c1-c1c(C)cc3c(c1O)/C(=C/N)C(=O)C(O)=C3C(C)C)/C(=C/N)C(=O)C(O)=C2C(C)C | 100 (≈ 194 µM) | 100 (≈ 194 µM) | 100 (≈ 194 µM) | 200 (≈ 387 µM) | 50 (≈ 96.8 µM) | 100 (≈ 194 µM) | 100 (≈ 194 µM) | 200 (≈ 387 µM) | 50 (≈ 96.8 µM) | 13 | 100 (≈ 194 µM) | 14 | 100 (≈ 194 µM) | 100 (≈ 194 µM) | 100 (≈ 194 µM) | 100 (≈ 194 µM) | 100 (≈ 194 µM) | 100 (≈ 194 µM) | 100 (≈ 194 µM) | 100 (≈ 194 µM) | diameter of the inhibition zone (DIZ) [10]: inactive; zone of inhibition at 400 µg/disc [22]: 13 mm; MIC [23]: > 400 µg/mL; MIC [24]: 100 µg/mL (≈ 194 µM); zone of inhibition at 400 µg/disc [25]: 12 mm; zone of inhibition at 400 µg/disc [26]: 11 mm; MIC [27]: 100 µg/mL (≈ 194 µM); MIC [28]: 200 µg/mL (≈ 387 µM); MIC [29]: 100 µg/mL (≈ 194 µM); MIC [30]: 50 µg/mL (≈ 96.8 µM); MIC [31]: 50 µg/mL (≈ 96.8 µM); MIC [32]: 100 µg/mL (≈ 194 µM); zone of inhibition at 400 µg/disc [33]: 15 mm; zone of inhibition at 400 µg/disc [34]: 11 mm; zone of inhibition at 400 µg/disc [35]: 14 mm; MIC [36]: 100 µg/mL (≈ 194 µM); MIC [37]: 100 µg/mL (≈ 194 µM); MIC [38]: 100 µg/mL (≈ 194 µM); zone of inhibition at 400 µg/disc [39]: 11 mm; MIC [40]: 100 µg/mL (≈ 194 µM) |
| COCCOC(CN/N=C/c1c(O)c(O)c(C(C)C)c2cc(C)c(-c3c(C)cc4c(C(C)C)c(O)c(O)c(/C=N/NCC(OCCOC)OCCOC)c4c3O)c(O)c12)OCCOC | 400 (≈ 445 µM) | 400 (≈ 445 µM) | 400 (≈ 445 µM) | > 400 | 200 (≈ 222 µM) | 400 (≈ 445 µM) | 400 (≈ 445 µM) | > 400 | 400 (≈ 445 µM) | 12 | > 400 | 14 | > 400 | 400 (≈ 445 µM) | > 400 | 400 (≈ 445 µM) | 400 (≈ 445 µM) | 400 (≈ 445 µM) | 400 (≈ 445 µM) | 400 (≈ 445 µM) | diameter of the inhibition zone (DIZ) [10]: inactive; zone of inhibition at 400 µg/disc [22]: 11 mm; MIC [23]: > 400 µg/mL; MIC [24]: 400 µg/mL (≈ 445 µM); zone of inhibition at 400 µg/disc [25]: 13 mm; zone of inhibition at 400 µg/disc [26]: 12 mm; MIC [27]: 400 µg/mL (≈ 445 µM); MIC [28]: > 400 µg/mL; MIC [29]: > 400 µg/mL; MIC [30]: 400 µg/mL (≈ 445 µM); MIC [31]: 400 µg/mL (≈ 445 µM); MIC [32]: > 400 µg/mL; zone of inhibition at 400 µg/disc [33]: 11 mm; zone of inhibition at 400 µg/disc [34]: 12 mm; zone of inhibition at 400 µg/disc [35]: 11 mm; MIC [36]: > 400 µg/mL; MIC [37]: 400 µg/mL (≈ 445 µM); MIC [38]: 400 µg/mL (≈ 445 µM); diameter of the inhibition zone (DIZ) [39]: inactive; MIC [40]: 400 µg/mL (≈ 445 µM) |
| COc1ccc2[nH]cc(CCN/C=C3\C(=O)C(O)=C(C(C)C)c4cc(C)c(-c5c(C)cc6c(c5O)/C(=C/NCCc5c[nH]c7ccc(OC)cc57)C(=O)C(O)=C6C(C)C)c(O)c43)c2c1 | 100 (≈ 116 µM) | 100 (≈ 116 µM) | 100 (≈ 116 µM) | 200 (≈ 232 µM) | 50 (≈ 57.9 µM) | 100 (≈ 116 µM) | 100 (≈ 116 µM) | 200 (≈ 232 µM) | 50 (≈ 57.9 µM) | 15 | 200 (≈ 232 µM) | 15 | 100 (≈ 116 µM) | 100 (≈ 116 µM) | 100 (≈ 116 µM) | 100 (≈ 116 µM) | 100 (≈ 116 µM) | 200 (≈ 232 µM) | 100 (≈ 116 µM) | 100 (≈ 116 µM) | zone of inhibition at 400 µg/disc ([10]; ATCC 10541, 18 h, read-out: DIZ): 14 mm; zone of inhibition at 400 µg/disc [22]: 15 mm; MIC [23]: 200 µg/mL (≈ 232 µM); MIC [24]: 100 µg/mL (≈ 116 µM); zone of inhibition at 400 µg/disc [25]: 15 mm; zone of inhibition at 400 µg/disc [26]: 15 mm; MIC [27]: 100 µg/mL (≈ 116 µM); MIC [28]: 100 µg/mL (≈ 116 µM); MIC [29]: 100 µg/mL (≈ 116 µM); MIC [30]: 100 µg/mL (≈ 116 µM); MIC [31]: 50 µg/mL (≈ 57.9 µM); MIC [32]: 100 µg/mL (≈ 116 µM); zone of inhibition at 400 µg/disc [33]: 16 mm; zone of inhibition at 400 µg/disc [34]: 15 mm; zone of inhibition at 400 µg/disc [35]: 16 mm; MIC [36]: 100 µg/mL (≈ 116 µM); MIC [37]: 100 µg/mL (≈ 116 µM); MIC [38]: 100 µg/mL (≈ 116 µM); zone of inhibition at 400 µg/disc [39]: 11 mm; MIC [40]: 100 µg/mL (≈ 116 µM) |
